Laboratory results from patent publication US10653645B2, “Method for enhancing folding and transport of misfolded glucocerebrosidase” (The Hospital for Sick Children, priority 2007, dated 2020).
Read-outs that look alike come from different tables or passages of the source.

Legend:
wild type (WT) GCase = target: T1, wild type (WT) GCase (Homo sapiens, UniProt P04062, R534H); assay: Heat denaturation of GCase at 50° C.; assay type: biochemical; settings: for increase of the half life of GCase: 20 μM
T1 construct: purchased Genzyme
T1 sequence (P04062 40-536 R534H): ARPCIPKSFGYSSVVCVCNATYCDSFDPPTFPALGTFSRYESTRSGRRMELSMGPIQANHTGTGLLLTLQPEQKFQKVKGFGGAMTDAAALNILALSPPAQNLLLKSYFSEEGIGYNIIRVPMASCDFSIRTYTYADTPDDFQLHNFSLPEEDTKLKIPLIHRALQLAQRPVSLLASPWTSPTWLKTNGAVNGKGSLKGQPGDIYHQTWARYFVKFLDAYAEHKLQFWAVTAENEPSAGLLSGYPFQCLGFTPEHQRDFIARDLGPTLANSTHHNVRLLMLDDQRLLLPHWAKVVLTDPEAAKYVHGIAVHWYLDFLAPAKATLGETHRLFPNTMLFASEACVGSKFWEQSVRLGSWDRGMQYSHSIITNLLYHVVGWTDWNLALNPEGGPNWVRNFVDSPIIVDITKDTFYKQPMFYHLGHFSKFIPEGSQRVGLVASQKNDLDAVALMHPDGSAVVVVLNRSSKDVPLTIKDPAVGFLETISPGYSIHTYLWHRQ
Protocol: (§1) Experiments set forth herein and related to the activity and function of GCase in the presence and absence of compounds of the invention were conducted using imiglucerase (CEREZYME, Genzyme) as the GCase. Cellular materials were obtained from fibroblast lysates expressing wild-type GCase and separately from fibroblast lysates derived from Gaucher disease patient cell lines carrying genotypes that encode either the N370S/N370S or F213I/L444P substitutions in GCase.
(§2) Quantitative determinations of enzymatic activity were performed by way of fluorometric assays utilizing the artificial substrate 4-methylumbelliferyl 2-acetamido-2-deoxy-beta-D-glucopyranoside (MUGlc). Reactions were performed at room temperature for 15-30 minutes, as indicated, using equal aliquots of enzyme (25 μL 20 mM Citrate Phosphate pH 5.5, 0.4% Taurodeoxycholate (TC)) and substrate (25 μL 20 mM Citrate Phosphate pH 5.5, MUGlc 1.6 mM). The amount of MU-fluorophore released in each assay was monitored fluorometrically using a spectrophotofluorometer following the addition of a 4-fold (200 μl) excess of 0.1M MAP, pH 10.5.

[1] = target: T2, human beta-glucocerebrosidase (GCase, CEREZYME) (Homo sapiens, UniProt P04062, R534H); assay: GCase activity fluorometric assay (inhibition, kinetics, pH dependence)
T2 sequence (P04062 40-536 R534H): T1 sequence (P04062 40-536 R534H)
Protocol: as §1, §2
The activity of GCase was also assayed at several different pH values, including 4.5, 5.0, 5.5, 6.0, 6.5 and 7.0.

[2] = tested on: Gaucher disease fibroblast cell lines harboring the N370S/N370S missense mutation; assay: Immunohistochemical fluorescence labeling, colocalization of GCase and Lamp-1; assay type: cell-based, human; settings: N370S/N370S fibroblasts
Protocol: Immunohistochemical fluorescence labeling of GD fibroblast cell lines harboring the N370S/N370S missense mutation were performed with rabbit polyclonal anti-GCase and mouse anti-Lamp-1 (lysosomal membrane associated protein). Cell nuclear staining was performed with 4′-6′-diamidino-2-phenylindole. […] (FIG. 6A, staining with anti-GCase in the presence of ABX; FIG. 6B, staining with anti-Lamp-1 in the presence of ABX; FIG. 6C, merger of FIGS. 6A and 6B; FIG. 6D, staining with anti-GCase in the presence of IFG; FIG. 6E, staining with anti-Lamp-1 in the presence of IFG; FIG. 6F, merger of FIGS. 6D and 6E; FIG. 6G, staining with anti-GCase in the absence of drug; FIG. 6H, staining with anti-Lamp-1 in the absence of drug; FIG. 6I, merger of FIGS. 6G and 6H.)
Immunohistochemical fluorescence labeling of Gaucher disease fibroblast cell lines harboring the N370S/N370S missense mutation was performed with rabbit polyclonal anti-GCase and mouse anti-Lamp-1 (lysosomal membrane associated protein). Cell nuclear staining was performed with 4′-6′-diamidino-2-phenylindole. […] Restored activity and trafficking of mutant GCase are the ultimate goals of a pharmacological chaperone-based therapeutic strategy.

`Nc1c(Br)cc(Br)cc1CN[C@H]1CC[C@H](O)CC1` [Ambroxol, trans-4-(2-amino-3,5-dibromobenzylamino) cyclohexanol] was tested, and the “increase of the half life of GCase” value (wild type (WT) GCase) was “more than three-fold”, the “increase in GCase activity remaining after incubation” value (wild type (WT) GCase; highest concentration of ambroxol, vs DMSO) was “more than three-fold” and the “inhibition of GCase under acidic conditions” value ([1]; 25 μM ambroxol, pH 4.5, 5.0, 5.5, 6.0, 6.5 and 7.0 assayed) was “only marginally inhibited”. The “mode of inhibition of GCase” value ([1]; kinetic analysis) was “competitive inhibitor” and the “Colocalization of GCase and Lamp-1 at the lysosome (rescue of mutant GCase trafficking)” value [2] was “Colocalization of GCase and Lamp-1 occurs at the lysosome”.
`CN(Cc1cc(Br)cc(Br)c1N)C1CCCCC1` [Bromhexine, 2-amino-3,5-dibromo-N-cyclohexyl-N-methylbenzenemethanamine] was tested, and the IC50 [1] was 60 µM and the “inhibitory activity compared with ambroxol” value ([1]; Table 2 IC50 values) was “two fold reduction”.
`Nc1ccc(Br)cc1Br` [Dibromoaniline] was tested, and the IC50 ([1]; 0.3 mM MUbGlc as the substrate) was “Dibromoaniline (NI −1000)”.
Compound `O=C(Nc1ccc(Br)cc1Br)c1ccccc1` [Dibromophenyl Benzamide] has an IC50 [1] of over 1000 µM.
With `Nc1c(Br)cc(Br)cc1Br` [Tribromoaniline] the IC50 ([1]; 0.3 mM MUbGlc as the substrate) was “Tribromoaniline (NI −1000)”.
In the case of `CCC(=O)Oc1c(Br)cc(Br)cc1Br` [Tribromophenyl Propanoate], the IC50 [1] is reported as over 1000 µM.
In the case of `OC[C@H]1CNC[C@@H](O)[C@@H]1O` [isofagomine], the “increase of the half life of GCase” value (wild type (WT) GCase) is reported as “more than three-fold”.
